In patent US20080014253A1, “Lipid-Based Drug Delivery Systems Containing Unnatural Phospholipase A2 Degradable Lipid Derivatives and the Therapeutic Uses Thereof” (priority 2004, published 2008):
“Also recorded” adds a separate entry of the source.

Legend:
[1] = type: physicochemical; conditions: for Main-transition Tm (peak position) / Pre-transition Tm (peak position): multilamellar liposomes, scan rate 20° C./h; for pre-transition of the lipid membrane (Cp-curves): one-component multilamellar liposomes
Procedure: FIG. 3. Heat capacity, CP, obtained using differential scanning calorimetry at a scan rate of 20° C./h for 0.15 mM multilamellar liposomes: (A) 1-O-DPPC′ (left), DPPC (middle), and 1-O-DPPC (right). (B) 1-O-DPPG′ (left), DPPG (middle) and 1-O-DPPG (right).
By replacing the ester linkage in the C-1 position with an ether bond, these unnatural phospholipids can furthermore be used as novel prodrug anticancer lipids to make liposomal microcarriers that can be degraded to active anticancer lysoetherlipids by PLA2 [27]. The lipid prodrug analogs (1-O-DPPC and 1-O-DPPG) were synthesized as described earlier. 1,2-dipalmitoyl-sn-glycero-3-phosphocholine (DPPC), 1,2-dipalmitoyl-sn-glycero-3-phosphoglycerol (DPPG), and 1,2-distearoyl-sn-glycero-3-phosphoethanolamine poly(ethylene glycol)2000 (DSPE-PEG2000) were purchased from Avanti Polar Lipids, AL, USA. Multi- and unilamellar liposomes were hydrated in a HEPES buffer solution (10 mM HEPES, 110 mM KCl, 1 mM NaN3, 30 μM CaCl2, 10 μM NaEDTA, pH 7.5) and prepared as described in previous work. Differential scanning calorimetry was carried out in the upscan mode at a scanrate of 20° C./h using multilamellar liposomes. The PLA2 lag time measurements on 1-O-DPPC′ unilamellar liposomes incorporated with small amounts of 1-O-DPPG′ or DSPE-PEG2000 lipids were performed in the gel-to-fluid main phase transition range and the degree of lipid hydrolysis was analyzed using HPLC techniques.
The heat capacity (Cp) curves obtained using differential scanning calorimetry are shown in FIG. 3 for one-component 1-O-DPPC′ and 1-O-DPPG′ multilamellar liposomes. The Cp-curves show a main peak at 40.1° C. and 40.6° C. reflecting the chain disordering gel-to-fluid main phase transition of the 1-O-DPPC′ and 1-O-DPPG′ lipid membranes, respectively. […] This leads to the formation of low temperature ordered and non-corrugated gel phase (Lβ) that prevails until the unset of the main transition giving rise to a concomitant increase in the integrated melting enthalpy of the main transition (Table 1). Since the 1-O-DPPC′ and 1-O-DPPG′ lipids undergo a transition from an ordered configuration in the low temperature non-corrugated gel phase to a disordered configuration in the high temperature fluid phase without passing through the ripple phase, the integrated melting enthalpy is expected to be higher than for the natural DPPC and DPPG ripple phase forming lipids, which undergo a transition to the fluid phase from a ripple phase with a higher energy than the non-corrugated gel phase. In order to exclude the possibility that the abolished ripple transition is due to having an ether bond in the C-1 position, we have in FIG. 3 also shown Cp-curves obtained on 1-O-DPPC and 1-O-DPPG multilamellar liposomes. Clearly, these Cp-curves show the same characteristic phase behavior as the natural DPPC and DPPG lipids with a pre-transition a few degrees below the main phase transition peak underlining that it is the position of the phosphate head group in the C-3 position on the natural phospholipids that is crucial for ripple formation.

human secretory PLA2 = biological target: T1, human secretory PLA2 (Homo sapiens, UniProt P14555); test: Hydrolysis of unilamellar liposomes by human secretory PLA2 from human tear fluid; type: biochemical
T1 construct: from tissue; host or cells: freshly prepared human tear fluid
T1 sequence (P14555 21-144): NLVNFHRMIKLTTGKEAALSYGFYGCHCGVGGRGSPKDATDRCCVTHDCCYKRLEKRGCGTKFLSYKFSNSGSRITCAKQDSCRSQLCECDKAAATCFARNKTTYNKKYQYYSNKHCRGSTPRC
Procedure: FIG. 4. Characteristic reaction time profiles at 40° C. for PLA2 hydrolysis of unilamellar. (A) 0.15 mM 1-O-DPPC′ liposomes incubated with 150 nM PLA2 (A. piscivorus piscivorus). (B) 0.15 mM 1-O-DPPG′ liposomes incubated with human secretory PLA2 from 20 μL freshly prepared human tear fluid (B). The PLA2 hydrolysis reaction is monitored by intrinsic fluorescence (solid line) from the enzyme and 90° static light scattering (dashed lines) from the lipid suspension. After adding PLA2 to the equilibrated liposome suspension a characteristic lag time, τ, follows before a sudden increase in the catalytic activity takes place (A).
FIG. 6. (A) PLA2 (A. piscivorus piscivorus) hydrolysis of 1-O-DPPC′ liposomes containing 0 mol % (▪), 2 mol % (▴), and 10 mol % (∘) 1-O-DPPG′ lipids, and 5 mol % (▾) DSPE-PEG2000 polymer lipids determined by HPLC [28]. The percent lipid hydrolysis is determined 1000 s after the unset of the burst. The concentration of the liposomes was 0.15 mM and the concentration of PLA2 was 150 nM. (B) Hydrolysis of 1-O-DPPG′ unilamellar liposomes determined by HPLC [28]. The PLA2 catalyzed lipid hydrolysis is determined as a function of time after addition of 20 μL freshly prepared human tear fluid to 0.15 mM 1-O-DPPG′ liposomes. […]

Row | Compound | Main-transition ΔHm (melting enthalpy) [1] | Pre-transition ΔH (melting enthalpy) [1] | Main-transition Tm (peak position) [1] | Pre-transition Tm (peak position) [1] | pre-transition of the lipid membrane (Cp-curves) [1] | onset of hydrolysis / lag time (human secretory PLA2; 0.15 mM liposomes, 20 μL human tear fluid, 40° C.) | activity of human secretory PLA2 towards liposomes (human secretory PLA2; liposomes formed by the lipid)
1 | CCCCCCCCCCCCCCCCOC[C@@H](COC(=O)CCCCCCCCCCCCCCC)OP(=O)([O-])OCC[N+](C)(C)C [1-O-DPPC′, (S)-1-O-hexadecyl-3-hexadecanoyl-glycero-2-phosphocholine] | 12.8 kcal/mol | – | 40.1 °C | – | abolished | – | –
2 | (S)-1-O-hexadecyl-3-hexadecanoyl-glycero-2-phosphoglycerol [1-O-DPPG′] | 11.3 kcal/mol | – | 40.6 °C | – | abolished | immediate hydrolysis; also recorded: becomes active immediately after addition | high activity; also recorded: superior substrates

Further lines, with some results ahead:

Row | Main-transition ΔHm (melting enthalpy) [1] | Pre-transition ΔH (melting enthalpy) [1] | Main-transition Tm (peak position) [1] | Pre-transition Tm (peak position) [1] | Compound | pre-transition of the lipid membrane (Cp-curves) [1] | onset of hydrolysis / lag time (human secretory PLA2; 0.15 mM liposomes, 20 μL human tear fluid, 40° C.) | activity of human secretory PLA2 towards liposomes (human secretory PLA2; liposomes formed by the lipid)
3 | 9.1 kcal/mol | 0.58 kcal/mol | 41.8 °C | 34.1 °C | 1-O-hexadecyl-2-hexadecanoyl-sn-glycero-3-phosphoglycerol [1-O-DPPG] | – | – | –
4 | 8.5 kcal/mol | 0.84 kcal/mol | 42.6 °C | 32.0 °C | CCCCCCCCCCCCCCCCOC[C@H](COP(=O)([O-])OCC[N+](C)(C)C)OC(=O)CCCCCCCCCCCCCCC [1-O-DPPC, 1-O-hexadecyl-2-hexadecanoyl-sn-glycero-3-phosphocholine] | – | – | –
5 | 8.7 kcal/mol | 1.2 kcal/mol | 40.5 °C | 31.9 °C | CCCCCCCCCCCCCCCC(=O)OC[C@H](COP(=O)([O-])OCC[N+](C)(C)C)OC(=O)CCCCCCCCCCCCCCC [DPPC, 1,2-dipalmitoyl-sn-glycero-3-phosphocholine] | – | – | –
6 | 9.8 kcal/mol | 1.31 kcal/mol | 40.6 °C | 34.3 °C | CCCCCCCCCCCCCCCC(=O)OC[C@H](COP(=O)(O)OCC(O)CO)OC(=O)CCCCCCCCCCCCCCC (stereo partly drawn) [DPPG, 1,2-dipalmitoyl-sn-glycero-3-phosphoglycerol] | – | – | –
